Results published in PubChem BioAssay AID1918948 (Molecular Pharmacology Branch, DTP, NCI, 2023).

Tested on: K-562 leukemia growth, % test/control
Experiment: Anticancer human tumor K-562 cell line growth inhibition;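 also: spheroids exposed to compounds for 7 days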;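 as to viability, T/C: 100% = DMSO vehicle wells and lower values mean fewer viable cells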
Settings: spheroids with HUVEC and MSC; for IC50: curve of first compound; for viability, T/C: stronger effect = lower value
Summary of the method: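 Multicellular complex spheroids of tumor cells with human endothelial cells (HUVEC) and mesenchymal stem cells; the LSD1 inhibitor iadademstat was combined with standard-of-care or investigational agents. Top concentration at or near clinical Cmax, half-log dilutions; final DMSO ≤0.25%.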

[1] = second compound 0.1 µM, first compound 0.000949 µM
[2] = second compound 0.1 µM, first compound 0.003 µM
[3] = second compound 0.1 µM, first compound 0.00949 µM
[4] = second compound 0.1 µM, first compound 0.03 µM
[5] = second compound 0.1 µM, first compound 0.0949 µM
[6] = second compound 0.1 µM, first compound 0.3 µM
[7] = second compound 0.316 µM, first compound 0.000949 µM
[8] = second compound 0.316 µM, first compound 0.003 µM
[9] = second compound 0.316 µM, first compound 0.00949 µM
[10] = second compound 0.316 µM, first compound 0.03 µM
[11] = second compound 0.316 µM, first compound 0.0949 µM
[12] = second compound 0.316 µM, first compound 0.3 µM
[13] = second compound 1 µM, first compound 0.000949 µM
[14] = second compound 1 µM, first compound 0.003 µM
[15] = second compound 1 µM, first compound 0.00949 µM
[16] = second compound 1 µM, first compound 0.03 µM
[17] = second compound 1 µM, first compound 0.0949 µM
[18] = second compound 1 µM, first compound 0.3 µM
[19] = second compound 3.16 µM, first compound 0.000949 µM
[20] = second compound 3.16 µM, first compound 0.003 µM
[21] = second compound 3.16 µM, first compound 0.00949 µM
[22] = second compound 3.16 µM, first compound 0.03 µM
[23] = second compound 3.16 µM, first compound 0.0949 µM
[24] = second compound 3.16 µM, first compound 0.3 µM
[25] = second compound 10 µM, first compound 0.000949 µM
[26] = second compound 10 µM, first compound 0.003 µM
[27] = second compound 10 µM, first compound 0.00949 µM
[28] = second compound 10 µM, first compound 0.03 µM
[29] = second compound 10 µM, first compound 0.0949 µM
[30] = second compound 10 µM, first compound 0.3 µM

CC[C@@]1(O)C(=O)OCc2c1cc1n(c2=O)Cc2cc3c(CN(C)C)c(O)ccc3nc2-1 + NC1CC1c1ccc(-c2cccc(O)c2)cc1
IC50 (second compound 0.1 µM): 7.67 nM
IC50 (second compound 0.316 µM): 5.74 nM
IC50 (second compound 1 µM): 5.4 nM
IC50 (second compound 3.16 µM): 4.98 nM
IC50 (second compound 10 µM): 4.19 nM
viability, T/C (second compound 0.1 µM, first compound 0.000316 µM): 113%
viability, T/C (second compound 0.1 µM, first compound 0.001 µM): 107%
viability, T/C (second compound 0.1 µM, first compound 0.00316 µM): 61.6%
viability, T/C (second compound 0.1 µM, first compound 0.01 µM): 50.7%
viability, T/C (second compound 0.1 µM, first compound 0.0316 µM): 18.9%
viability, T/C (second compound 0.1 µM, first compound 0.1 µM): 8.32%
viability, T/C (second compound 0.316 µM, first compound 0.000316 µM): 109%
viability, T/C (second compound 0.316 µM, first compound 0.001 µM): 106%
viability, T/C (second compound 0.316 µM, first compound 0.00316 µM): 60.2%
viability, T/C (second compound 0.316 µM, first compound 0.01 µM): 38.5%
viability, T/C (second compound 0.316 µM, first compound 0.0316 µM): 13.9%
viability, T/C (second compound 0.316 µM, first compound 0.1 µM): 5.85%
viability, T/C (second compound 1 µM, first compound 0.000316 µM): 107%
viability, T/C (second compound 1 µM, first compound 0.001 µM): 100%
viability, T/C (second compound 1 µM, first compound 0.00316 µM): 59.9%
viability, T/C (second compound 1 µM, first compound 0.01 µM): 36.5%
viability, T/C (second compound 1 µM, first compound 0.0316 µM): 12%
viability, T/C (second compound 1 µM, first compound 0.1 µM): 6.28%
viability, T/C (second compound 3.16 µM, first compound 0.000316 µM): 104%
viability, T/C (second compound 3.16 µM, first compound 0.001 µM): 99.7%
viability, T/C (second compound 3.16 µM, first compound 0.00316 µM): 56.5%
viability, T/C (second compound 3.16 µM, first compound 0.01 µM): 35.1%
viability, T/C (second compound 3.16 µM, first compound 0.0316 µM): 11%
viability, T/C (second compound 3.16 µM, first compound 0.1 µM): 6.02%
viability, T/C (second compound 10 µM, first compound 0.000316 µM): 99.4%
viability, T/C (second compound 10 µM, first compound 0.001 µM): 94.9%
viability, T/C (second compound 10 µM, first compound 0.00316 µM): 52.4%
viability, T/C (second compound 10 µM, first compound 0.01 µM): 29.4%
viability, T/C (second compound 10 µM, first compound 0.0316 µM): 9.44%
viability, T/C (second compound 10 µM, first compound 0.1 µM): 3.98%

CCc1c2c(nc3ccc(O)cc13)-c1cc3c(c(=O)n1C2)COC(=O)[C@]3(O)CC + NC1CC1c1ccc(-c2cccc(O)c2)cc1
IC50 (second compound 0.1 µM): < 0.949 nM
IC50 (second compound 0.316 µM): < 0.949 nM
IC50 (second compound 1 µM): < 0.949 nM
IC50 (second compound 3.16 µM): < 0.949 nM
IC50 (second compound 10 µM): < 0.949 nM
viability, T/C [1]: 10.6%
viability, T/C [2]: 4.88%
viability, T/C [3]: 2.16%
viability, T/C [4]: 0.75%
viability, T/C [5]: 0.56%
viability, T/C [6]: 0.55%
viability, T/C [7]: 8.09%
viability, T/C [8]: 3.51%
viability, T/C [9]: 1.86%
viability, T/C [10]: 0.71%
viability, T/C [11]: 0.44%
viability, T/C [12]: 0.5%
viability, T/C [13]: 7.04%
viability, T/C [14]: 3.48%
viability, T/C [15]: 1.67%
viability, T/C [16]: 0.89%
viability, T/C [17]: 0.51%
viability, T/C [18]: 0.57%
viability, T/C [19]: 7.47%
viability, T/C [20]: 4.23%
viability, T/C [21]: 2.63%
viability, T/C [22]: 0.67%
viability, T/C [23]: 0.46%
viability, T/C [24]: 0.55%
viability, T/C [25]: 5.81%
viability, T/C [26]: 2.92%
viability, T/C [27]: 1.32%
viability, T/C [28]: 0.74%
viability, T/C [29]: 0.43%
viability, T/C [30]: 1.23%

Nc1ccn(C2OC(CO)C(O)C2(F)F)c(=O)n1 (stereo not given) + NC1CC1c1ccc(-c2cccc(O)c2)cc1
IC50 (second compound 0.1 µM): 9.42 nM
IC50 (second compound 0.316 µM): 8.17 nM
IC50 (second compound 1 µM): 7.91 nM
IC50 (second compound 3.16 µM): 6.77 nM
IC50 (second compound 10 µM): 5.86 nM
viability, T/C [1]: 105%
viability, T/C [2]: 99.8%
viability, T/C [3]: 49.8%
viability, T/C [4]: 12.8%
viability, T/C [5]: 10.7%
viability, T/C [6]: 11.8%
viability, T/C [7]: 107%
viability, T/C [8]: 102%
viability, T/C [9]: 42.1%
viability, T/C [10]: 10.5%
viability, T/C [11]: 8.16%
viability, T/C [12]: 8.05%
viability, T/C [13]: 106%
viability, T/C [14]: 102%
viability, T/C [15]: 40.2%
viability, T/C [16]: 7.41%
viability, T/C [17]: 7.12%
viability, T/C [18]: 7.2%
viability, T/C [19]: 103%
viability, T/C [20]: 101%
viability, T/C [21]: 29%
viability, T/C [22]: 6.83%
viability, T/C [23]: 6.72%
viability, T/C [24]: 7.82%
viability, T/C [25]: 100%
viability, T/C [26]: 93.2%
viability, T/C [27]: 19%
viability, T/C [28]: 5.75%
viability, T/C [29]: 6.04%
viability, T/C [30]: 7.9%
